Reference: ChEMBL document CHEMBL5131388, “Discovery of novel brain-penetrant GluN2B NMDAR antagonists via pharmacophore-merging strategy as anti-stroke therapeutic agents” (Eur J Med Chem, 2022)

Experiments:
Type in all cases: functional, Hippocampal neurone
Details in all cases: time 18.5 hrs
[1] = Neuroprotective activity against NMDA-induced neurotoxicity in Sprague-Dawley rat hippocampal neurons assessed as increase in cell viability at 0.1 uM incubated for 18 hrs followed by NMDA addition and measured after 0.5 hrs by MTT assay
[2] = Neuroprotective activity against NMDA-induced neurotoxicity in Sprague-Dawley rat hippocampal neurons assessed as increase in cell viability at 10 uM incubated for 18 hrs followed by NMDA addition and measured after 0.5 hrs by MTT assay
[3] = Neuroprotective activity against NMDA-induced neurotoxicity in Sprague-Dawley rat hippocampal neurons assessed as increase in cell viability at 1 uM incubated for 18 hrs followed by NMDA addition and measured after 0.5 hrs by MTT assay

Row | SMILES | Activity [1] | Activity [2] | Activity [3] | Activity ([1]; 0.1 µM) | Activity ([2]; 10 µM) | Activity ([3]; 1 µM)
1 | CS(=O)(=O)c1ccc(CN2CCN(CCCC3OC(=O)c4ccccc43)CC2)cc1 (stereo not drawn) | 50.17% | 61.02% | 55.51% |  |  | 
2 | N#Cc1ccc(CN2CCN(CCCC3OC(=O)c4ccccc43)CC2)cc1 (stereo not drawn) | 49.49% | 60.33% | 54.83% |  |  | 
3 | O=C1OC(CCCN2CCN(Cc3ccc(F)c(F)c3)CC2)c2ccccc21 (stereo not drawn) | 57.3% | 75.45% | 65.4% |  |  | 
4 | O=C1OC(CCCN2CCCCC2)c2ccccc21 (stereo not drawn) | 63.96% | 77.85% | 70.2% |  |  | 
5 | COc1ccc(CN2CCN(CCCC3OC(=O)c4ccccc43)CC2)cc1OC (stereo not drawn) | 46.58% | 48.44% | 47.16% |  |  | 
6 | O=C1OC(CCCN2CCC(CO)CC2)c2ccccc21 (stereo not drawn) | 60.19% | 78.14% | 74.86% |  |  | 
7 | Cc1ccc(CN2CCN(CCCC3OC(=O)c4ccccc43)CC2)cc1 (stereo not drawn) | 51.66% | 68.38% | 64.44% |  |  | 
8 | O=C1OC(CCCN2CCN(Cc3cccc(Cl)c3)CC2)c2ccccc21 (stereo not drawn) | 49.69% | 62.96% | 55.95% |  |  | 
9 | O=C1OC(CCCN2CCN(Cc3ccncc3)CC2)c2ccccc21 (stereo not drawn) | 57.55% | 75.54% | 66.35% |  |  | 
10 | O=C1OC(CCCN2CCN(Cc3cccnc3)CC2)c2ccccc21 (stereo not drawn) | 51.84% | 63.33% | 55.95% |  |  | 
11 | O=C1OC(CCCN2CCN(Cc3ccc(Cl)cc3)CC2)c2ccccc21 (stereo not drawn) | 49.49% | 60.33% | 54.83% |  |  | 
12 | O=C1OC(CCCN2CCOCC2)c2ccccc21 (stereo not drawn) | 57.15% | 76.22% | 65.19% |  |  | 
13 | CN(C)CCCC1OC(=O)c2ccccc21 (stereo not drawn) | 48.37% | 78.18% | 77.37% |  |  | 
14 | O=C1OC(CCN2CCc3sccc3C2)c2ccccc21 (stereo not drawn) | 45.88% | 66.05% | 58.81% |  |  | 
15 | O=C1OC(CCCN2CCC(Cc3ccccc3)CC2)c2ccccc21 (stereo not drawn) | 49.13% | 79.12% | 78.13% |  |  | 
16 | O=C1OC(CCCN2CCN(Cc3ccc(C(F)(F)F)cc3)CC2)c2ccccc21 (single isomer, unassigned; enantiomer A) |  |  |  | 62.81% | 81.02% | 71.91%
17 | CN(C)CCC1OC(=O)c2ccccc21 (stereo not drawn) | 56.09% | 73.56% | 71.66% |  |  | 
18 | Cc1cccc(CN2CCN(CCCC3OC(=O)c4ccccc43)CC2)c1 (stereo not drawn) | 53.08% | 67.43% | 61.15% |  |  | 
19 | O=C1OC(CCCN2CCC(O)CC2)c2ccccc21 (stereo not drawn) | 58.83% | 77.13% | 67.72% |  |  | 
20 | O=C1OC(CCCN2CCc3sccc3C2)c2ccccc21 (stereo not drawn) | 49.39% | 66.52% | 61.1% |  |  | 
21 | O=C1OC(CCCN2CCN(Cc3ccc(C(F)(F)F)cc3)CC2)c2ccccc21 (single isomer, unassigned; enantiomer B) |  |  |  | 65.86% | 81.82% | 81.02%
22 | O=C1OC(CCCN2CCN(Cc3ccccn3)CC2)c2ccccc21 (stereo not drawn) | 57.46% | 74.65% | 67.89% |  |  | 
23 | O=C1OC(CCCN2CCN(Cc3ccc(Br)cc3)CC2)c2ccccc21 (stereo not drawn) | 46.12% | 46.13% | 45.56% |  |  | 
24 | O=C1OC(CCCN2CCN(Cc3ccc(F)cc3)CC2)c2ccccc21 (stereo not drawn) | 52.58% | 72.2% | 64.11% |  |  | 
25 | O=C1OC(CCCN2CCCC2)c2ccccc21 (stereo not drawn) | 56.53% | 73.16% | 65.3% |  |  | 
26 | O=C1OC(CCCN2CCN(Cc3ccc4ccccc4n3)CC2)c2ccccc21 (stereo not drawn) | 49.69% | 62.96% | 55.95% |  |  | 
